Reference: patent US8754216B2, “NK1 antagonists” (OPKO Health, Inc., priority 2004, dated 2014)
pKi: −log10 of the molar value.

The molecules below were run against NK1 receptor (Homo sapiens, UniProt P25103) (assay: NK1 receptor binding: inhibition of Substance P binding, Ki by Chang-Prusoff equation). Conditions: affinity for the NK1 receptor.
Chain of NK1 receptor (P25103 whole entry, species assumed): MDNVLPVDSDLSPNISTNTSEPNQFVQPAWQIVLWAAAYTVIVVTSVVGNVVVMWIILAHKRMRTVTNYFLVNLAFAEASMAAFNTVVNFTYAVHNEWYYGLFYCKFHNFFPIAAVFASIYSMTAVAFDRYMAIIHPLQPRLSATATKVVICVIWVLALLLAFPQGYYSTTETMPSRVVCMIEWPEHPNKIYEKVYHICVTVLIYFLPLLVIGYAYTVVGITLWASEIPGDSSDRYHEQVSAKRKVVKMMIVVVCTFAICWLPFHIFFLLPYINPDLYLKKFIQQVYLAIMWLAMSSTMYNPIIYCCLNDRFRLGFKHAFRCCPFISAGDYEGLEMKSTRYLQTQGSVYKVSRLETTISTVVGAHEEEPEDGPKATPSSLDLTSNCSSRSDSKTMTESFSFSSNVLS
Description: The in vitro and in vivo NK1, NK2 and NK3 activities of the compounds of Formula I can be determined by various procedures known in the art, such as a test for their ability to inhibit the activity of the NK1 agonist Substance P. The percent inhibition of neurokinin agonist activity is the difference between the percent of maximum specific binding (“MSB”) and 100%. The percent of MSB is defined by the following equation, wherein “dpm” represents “disintegrations per minute”:
[formula] The concentration at which the compound produces 50% inhibition of binding is then used to determine an inhibition constant (“Ki”) using the Chang-Prusoff equation.
The activities (potencies) for the compounds of the invention are determined by measuring their Ki values. […] Even more preferred are compounds having average Ki values of from 0.1 nM to about 5 nM for the NK1 receptor. Especially preferred compounds have […], average Ki values of from 0.1 nM to about 1 nM. Even more especially preferred compounds have NK1 average Ki values of from 0.1 nM to about 0.3 nM.
C[C@@H](OC[C@@]1(c2ccccc2)CC[C@@](C(N)=O)(n2cnnc2)CN1)c1cc(C(F)(F)F)cc(C(F)(F)F)c1 [Compound 10] was tested, and the pKi was 10.00. C[C@@H](OC[C@@]1(c2ccccc2)CC[C@@](CO)(n2cnnc2)CN1)c1cc(C(F)(F)F)cc(C(F)(F)F)c1 [Compound 12] gave a pKi of 10.30. Work on C[C@@H](OC[C@@]1(c2ccccc2)CC[C@](C#N)(N2CCOC2=O)CN1)c1cc(C(F)(F)F)cc(C(F)(F)F)c1 [Compound 2] yielded a pKi of 9.92. Work on CCNC(=O)C[C@]1(n2cn[nH]c2=O)CC[C@@](CO[C@H](C)c2cc(C(F)(F)F)cc(C(F)(F)F)c2)(c2ccccc2)NC1 [Compound 16] yielded a pKi of 9.89. COC[C@@]1(n2cnnc2)CC[C@@](CO[C@H](C)c2cc(C(F)(F)F)cc(C(F)(F)F)c2)(c2ccccc2)NC1 [Compound 14] gave a pKi of 10.00. Molecule CCC(=O)[C@]1(n2cn[nH]c2=O)CC[C@@](CO[C@H](C)c2cc(C(F)(F)F)cc(C(F)(F)F)c2)(c2ccccc2)NC1 [Compound 19] has a pKi of 10.00. In the case of C[C@@H](OC[C@@]1(c2ccccc2)CC[C@](C#N)(n2cn[nH]c2=O)CN1)c1cc(C(F)(F)F)cc(C(F)(F)F)c1 [Compound 42], the pKi was 9.55. Work on C[C@@H](OC[C@@]1(c2ccccc2)CC[C@](CC(N)=O)(n2cn[nH]c2=O)CN1)c1cc(C(F)(F)F)cc(C(F)(F)F)c1 [Compound 29] yielded a pKi of 9.96. Molecule C[C@@H](OC[C@@]1(c2ccccc2)CC[C@](CO)(n2cn[nH]c2=O)CN1)c1cc(C(F)(F)F)cc(C(F)(F)F)c1 [Compound 23] has a pKi of 9.92. In the case of CC(=O)C[C@]1(n2cn[nH]c2=O)CC[C@@](CO[C@H](C)c2cc(C(F)(F)F)cc(C(F)(F)F)c2)(c2ccccc2)NC1 [Compound 30], the pKi was 9.27. For C[C@@H](OC[C@@]1(c2ccccc2)CC[C@](C#N)(N2CCC2=O)CN1)c1cc(C(F)(F)F)cc(C(F)(F)F)c1 [Compound 9], the pKi was 9.74. For COC[C@]1(N2CC(=O)NC2=O)CC[C@@](CO[C@H](C)c2cc(C(F)(F)F)cc(C(F)(F)F)c2)(c2ccccc2)NC1 [Compound 20], the pKi was 9.96. In the case of C/C(=N\O)[C@]1(n2cn[nH]c2=O)CC[C@@](CO[C@H](C)c2cc(C(F)(F)F)cc(C(F)(F)F)c2)(c2ccccc2)NC1 [Compound 54], the pKi was 9.92.
